Experimental data from ChEMBL document CHEMBL4715829, “Heterodimeric Rifampicin-Tobramycin conjugates break intrinsic resistance of Pseudomonas aeruginosa to doxycycline and chloramphenicol in vitro and in a Galleria mellonella in vivo model” (Eur J Med Chem, 2019).
Active and inactive are the calls of the source. The calls are words filed in the database; no cut-off is given here.

Key:
Pseudomonas aeruginosa [1] = assay: Antibacterial activity against Pseudomonas aeruginosa 114228 assessed as potentiation of doxycycline-induced antibacterial activity by measuring doxycycline MIC at 9.8 uM incubated for 18 hrs in presence of doxycycline by broth microdilution assay (reference value: 32 ug/ml); format: functional
Pseudomonas aeruginosa [2] = assay: Antibacterial activity against Pseudomonas aeruginosa 114228 assessed as fractional inhibitory concentration index incubated for 18 hrs in presence of rifampicin by broth microdilution assay; format: functional
Acinetobacter baumannii = assay: Potentiation of doxycycline-induced antibacterial activity against Acinetobacter baumannii ATCC 17978 assessed as fold change in doxycycline MIC at 9.8 uM incubated for 18 hrs in presence of doxycycline by broth microdilution assay relative to control; format: functional
Pseudomonas aeruginosa [3] = assay: Antibacterial activity against Pseudomonas aeruginosa 260-97103 infected in Galleria mellonella larvae assessed as survival of larvae at 75 mg/kg treated at 3 hrs post-infection in presence of chloramphenicol and measured after 24 hrs relative to control; format: functional
Pseudomonas aeruginosa [4] = assay: Antibacterial activity against Pseudomonas aeruginosa 114228 assessed as potentiation of chloramphenicol-induced antibacterial activity by measuring chloramphenicol MIC at 9.8 uM incubated for 18 hrs in presence of chloramphenicol by broth microdilution assay (reference value: 64 ug/ml); format: functional
Pseudomonas aeruginosa [5] = assay: Antibacterial activity against Pseudomonas aeruginosa 100036 assessed as fractional inhibitory concentration incubated for 18 hrs in presence of minocycline by broth microdilution assay; format: functional
Pseudomonas aeruginosa [6] = assay: Antibacterial activity against Pseudomonas aeruginosa 101243 assessed as potentiation of chloramphenicol-induced antibacterial activity by measuring chloramphenicol MIC at 9.8 uM incubated for 18 hrs in presence of chloramphenicol by broth microdilution assay (reference value: 1 ug/ml); format: functional
Pseudomonas aeruginosa [7] = assay: Antibacterial activity against Pseudomonas aeruginosa 260-97103 assessed as potentiation of doxycycline-induced antibacterial activity by measuring doxycycline MIC at 9.8 uM incubated for 18 hrs in presence of doxycycline by broth microdilution assay (reference value: 16 ug/ml); format: functional
Pseudomonas aeruginosa [8] = assay: (§1) Potentiation of chloramphenicol-induced bactericidal activity against Pseudomonas aeruginosa PAO1 assessed as reduction in bacterial colonies at 4.9 to 9.8 microM incubated for upto 24 hrs in LB medium in presence of chloramphenicol followed by plating on agar plate and measured after 20 hrs by time-kill assay; format: functional, organism-based; conditions: dose 4.9-9.8 µM, time hrs <=44
Pseudomonas aeruginosa [9] = assay: Antibacterial activity against Pseudomonas aeruginosa 101885 assessed as fractional inhibitory concentration index incubated for 18 hrs in presence of tigecycline by broth microdilution assay; format: functional
Pseudomonas aeruginosa [10] = assay: as §1, with “doxycycycline-induced” for “chloramphenicol-induced”, “doxycycline” for “chloramphenicol”; format: functional, organism-based; conditions: dose 4.9-9.8 µM, time hrs <=44
Pseudomonas aeruginosa [11] = assay: Antibacterial activity against Pseudomonas aeruginosa 260-97103 infected in Galleria mellonella larvae assessed as survival of larvae at 100 mg/kg treated at 3 hrs post-infection in presence of doxycycline and measured after 24 hrs relative to control; format: functional
Pseudomonas aeruginosa [12] = assay: Antibacterial activity against Pseudomonas aeruginosa 260-97103 assessed as fractional inhibitory concentration index incubated for 18 hrs in presence of minocycline by broth microdilution assay; format: functional
HEK293 = assay: Cytotoxicity against human HEK293 cells assessed as cell viability at 50 uM incubated for 48 hrs in presence of doxycycline by prestoblue assay; format: cell-based; conditions: hek293, 48 h
Pseudomonas aeruginosa [13] = assay: Antibacterial activity against Pseudomonas aeruginosa 101243 assessed as fractional inhibitory concentration incubated for 18 hrs in presence of minocycline by broth microdilution assay; format: functional
Pseudomonas aeruginosa [14] = assay: Antibacterial activity against Pseudomonas aeruginosa 100036 assessed as fractional inhibitory concentration index incubated for 18 hrs in presence of tigecycline by broth microdilution assay; format: functional
Pseudomonas aeruginosa [15] = assay: Potentiation of chloramphenicol-induced antibacterial activity against Pseudomonas aeruginosa 114228 assessed as fold change in chloramphenicol MIC at 9.8 uM incubated for 18 hrs in presence of chloramphenicol by broth microdilution assay relative to control; format: functional
Pseudomonas aeruginosa [16] = assay: Antibacterial activity against Pseudomonas aeruginosa 259-96918 assessed as fractional inhibitory concentration incubated for 18 hrs in presence of chloramphenicol by broth microdilution assay; format: functional
Pseudomonas aeruginosa [17] = assay: Antibacterial activity against Pseudomonas aeruginosa 260-97103 assessed as reduction in bacterial growth by measuring doxycycline MIC at 8 ug/ml incubated for 18 hrs in presence of doxycycline by broth microdilution assay (reference value: 16 ug/ml); format: functional; conditions: dose 8 µg/ml
Pseudomonas aeruginosa [18] = assay: Antibacterial activity against Pseudomonas aeruginosa 259-96918 assessed as reduction in bacterial growth by measuring chloramphenicol MIC at 8 ug/ml incubated for 18 hrs in presence of chloramphenicol by broth microdilution assay (reference value: 1024 ug/ml); format: functional; conditions: dose 8 µg/ml
Pseudomonas aeruginosa [19] = assay: Antibacterial activity against Pseudomonas aeruginosa 100036 assessed as reduction in bacterial growth by measuring doxycycline MIC at 8 ug/ml incubated for 18 hrs in presence of doxycycline by broth microdilution assay (reference value: 64 ug/ml); format: functional; conditions: dose 8 µg/ml
Pseudomonas aeruginosa [20] = assay: Potentiation of chloramphenicol-induced antibacterial activity against Pseudomonas aeruginosa 100036 assessed as fold change in chloramphenicol MIC at 7.6 uM incubated for 18 hrs in presence of chloramphenicol by broth microdilution assay relative to control; format: functional
Escherichia coli = assay: Potentiation of doxycycline-induced antibacterial activity against Escherichia coli ATCC 25922 assessed as fold change in doxycycline MIC at 7.6 uM incubated for 18 hrs in presence of doxycycline by broth microdilution assay relative to control; format: functional
Pseudomonas aeruginosa [21] = assay: Antibacterial activity against Pseudomonas aeruginosa 264-101354 assessed as potentiation of doxycycline-induced antibacterial activity by measuring doxycycline MIC at 7.6 uM incubated for 18 hrs in presence of doxycycline by broth microdilution assay (reference value: 64 ug/ml); format: functional
Pseudomonas aeruginosa [22] = assay: Antibacterial activity against Pseudomonas aeruginosa 260-97103 assessed as potentiation of doxycycline-induced antibacterial activity by measuring doxycycline MIC at 7.6 uM incubated for 18 hrs in presence of doxycycline by broth microdilution assay (reference value: 16 ug/ml); format: functional
Pseudomonas aeruginosa [23] = assay: Potentiation of doxycycline-induced antibacterial activity against Pseudomonas aeruginosa 100036 assessed as fold change in doxycycline MIC at 7.6 uM incubated for 18 hrs in presence of doxycycline by broth microdilution assay relative to control; format: functional
Enterobacter cloacae = assay: Potentiation of chloramphenicol-induced antibacterial activity against Enterobacter cloacae ATCC 117029 assessed as fold change in chloramphenicol MIC at 7.6 uM incubated for 18 hrs in presence of chloramphenicol by broth microdilution assay relative to control; format: functional
Klebsiella pneumoniae = assay: Potentiation of doxycycline-induced antibacterial activity against Klebsiella pneumoniae ATCC 16381 assessed as fold change in doxycycline MIC at 7.6 uM incubated for 18 hrs in presence of doxycycline by broth microdilution assay relative to control; format: functional
Pseudomonas aeruginosa [24] = assay: Antibacterial activity against Pseudomonas aeruginosa 262-101856 assessed as reduction in bacterial growth by measuring doxycycline MIC at 16 ug/ml incubated for 18 hrs in presence of doxycycline by broth microdilution assay (reference value: 1024 ug/ml); format: functional; conditions: dose 16 µg/ml
Pseudomonas aeruginosa [25] = assay: Antibacterial activity against Pseudomonas aeruginosa 259-96918 assessed as reduction in bacterial growth by measuring chloramphenicol MIC at 2 ug/ml incubated for 18 hrs in presence of chloramphenicol by broth microdilution assay (reference value: 1024 ug/ml); format: functional; conditions: dose 2 µg/ml

`CO[C@H]1/C=C/O[C@@]2(C)Oc3c(C)c(O)c4c(O)c(c(/C=N/N5CCN(Cc6cn(CCCCCCO[C@@H]7[C@@H](O[C@H]8O[C@H](CO)[C@@H](O)[C@H](N)[C@H]8O)[C@H](N)C[C@H](N)[C@H]7O[C@H]7O[C@H](CN)[C@@H](O)C[C@H]7N)nn6)CC5)c(O)c4c3C2=O)NC(=O)/C(C)=C\C=C\[C@H](C)[C@H](O)[C@@H](C)[C@@H](O)[C@@H](C)[C@H](OC(C)=O)[C@@H]1C.Cl.Cl.Cl.Cl.Cl` was tested, and the MIC (Pseudomonas aeruginosa [1]) was 1 µg/mL, the “fractional inhibitory concentration index (FICI)” value (Pseudomonas aeruginosa [2]) was less than 0.53 and the “fold change (FC)” value (Acinetobacter baumannii) was 0. The survival at 75 mg/kg (Pseudomonas aeruginosa [3]) was 10%, the MIC (Pseudomonas aeruginosa [4]) was 16 µg/mL and the FIC (Pseudomonas aeruginosa [5]) was 0.063. The MIC (Pseudomonas aeruginosa [6]) was 0.125 µg/mL, the MIC (Pseudomonas aeruginosa [7]) was 0.125 µg/mL and the Activity (Pseudomonas aeruginosa [8]) was “Active”. The “fractional inhibitory concentration index (FICI)” value (Pseudomonas aeruginosa [9]) was 0.19, the Activity (Pseudomonas aeruginosa [10]) was “Active” and the survival at 100 mg/kg (Pseudomonas aeruginosa [11]) was 75%. For the same molecule, the “fractional inhibitory concentration index (FICI)” value (Pseudomonas aeruginosa [12]) was less than 0.13, the Activity (HEK293) was “Non-Toxic” and the FIC (Pseudomonas aeruginosa [13]) was less than 0.063. The “fractional inhibitory concentration index (FICI)” value (Pseudomonas aeruginosa [14]) was 0.13 and the “fold change (FC)” value (Pseudomonas aeruginosa [15]) was 4.

`NC[C@H]1O[C@H](O[C@H]2[C@H](O)[C@@H](O[C@H]3O[C@H](CO)[C@@H](O)[C@H](N)[C@H]3O)[C@H](N)C[C@@H]2N)[C@H](N)C[C@@H]1O` [TOBRAMYCIN] gave an FIC (Pseudomonas aeruginosa [16]) of 0.25, an MIC (Pseudomonas aeruginosa [17]) of 16 µg/mL and an MIC (Pseudomonas aeruginosa [18]) of 1020 µg/mL. It also gave an MIC (Pseudomonas aeruginosa [19]) of 64 µg/mL.

For `CO[C@H]1/C=C/O[C@@]2(C)Oc3c(C)c(O)c4c(O)c(c(/C=N/N5CCN(Cc6cn(CCCCCCCCCCCCO[C@@H]7[C@@H](O[C@H]8O[C@H](CO)[C@@H](O)[C@H](N)[C@H]8O)[C@H](N)C[C@H](N)[C@H]7O[C@H]7O[C@H](CN)[C@@H](O)C[C@H]7N)nn6)CC5)c(O)c4c3C2=O)NC(=O)/C(C)=C\C=C\[C@H](C)[C@H](O)[C@@H](C)[C@@H](O)[C@@H](C)[C@H](OC(C)=O)[C@@H]1C.O=C(O)C(F)(F)F.O=C(O)C(F)(F)F.O=C(O)C(F)(F)F.O=C(O)C(F)(F)F.O=C(O)C(F)(F)F`, the “fold change (FC)” value (Pseudomonas aeruginosa [20]) was 4, the “fold change (FC)” value (Escherichia coli) was 0 and the MIC (Pseudomonas aeruginosa [21]) was 1 µg/mL. For the same molecule, the MIC (Pseudomonas aeruginosa [22]) was 0.125 µg/mL, the “fold change (FC)” value (Pseudomonas aeruginosa [23]) was 4 and the “fold change (FC)” value (Enterobacter cloacae) was 0. For the same molecule, the “fold change (FC)” value (Klebsiella pneumoniae) was 0.

Molecule `CO[C@H]1/C=C/O[C@@]2(C)Oc3c(C)c(O)c4c(O)c(c(/C=N/N5CCN(C)CC5)c(O)c4c3C2=O)NC(=O)/C(C)=C\C=C\[C@H](C)[C@H](O)[C@@H](C)[C@@H](O)[C@@H](C)[C@H](OC(C)=O)[C@@H]1C` [RIFAMPIN] has an MIC (Pseudomonas aeruginosa [24]) of 1020 µg/mL and an MIC (Pseudomonas aeruginosa [25]) of 1020 µg/mL.
